This is an account of results in patent US9493444B2 (Merck Patent GmbH, priority 2012, dated 2016).

Bounds are passed on as bounds.

Broadly, the IC50 is the concentration that gives 50% inhibition. Lower therefore signals greater potency.

This assay concerns Wnt pathway (TCF-dependent transcription in HEK293 luciferase reporter cell line with ER-DSH construct). The assay is described as follows: Cellular assay for Wnt pathway activity (luciferase reporter). The class given is cell-based. The note with it: Homo sapiens; Wnt pathway inhibition, HEK293 luciferase reporter cells (ER-DSH, TCF promoter), 24 hours incubation, estrogen-induced. Put shortly: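 Luminescent luciferase read-out after 24 h compound exposure at 1 nM to 30 μM, with TCF-driven transcription switched on by estrogen addition. IC50 values come from curve fits of data normalized against the vehicle-only control.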
(In general: A reporter such as luciferase makes a cellular process visible.)
In turn, `CC(=O)N(C)CCOc1cncc(Oc2ccc(F)cc2)n1` [Compound 188, N-{2-[6-(4-Fluoro-phenoxy)-pyrazin-2-yloxy]-ethyl}-N-methyl-acetamide] registered an IC50 of 1 to 10 µM. With `CNC(=O)CCCN(C)c1cncc(Oc2ccc(F)cc2)n1` [Compound 189, 4-{[6-(4-Fluoro-phenoxy)-pyrazin-2-yl]-methyl-amino}-N-methyl-butyramide] the figure was 1 to 10 µM.

Compound `CC(=O)N(C)CCN(C)c1cncc(Oc2ccc(-c3cc4cc[nH]c4cn3)cc2)n1` [Compound 190, N-Methyl-N-[2-(methyl-{6-[4-(1H-pyrrolo[2,3-c]pyridin-5-yl)-phenoxy]-pyrazin-2-yl}-amino)-ethyl]-acetamide] had a 50% inhibitory concentration (IC50) below 0.2 µM.

On to `CC(=O)N(C)CCN(C)c1cncc(Oc2ccc(-c3ncnc4[nH]ccc34)cc2)n1` [Compound 191, N-Methyl-N-[2-(methyl-{6-[4-(7H-pyrrolo[2,3-d]pyrimidin-4-yl)-phenoxy]-pyrazin-2-yl}-amino)-ethyl]-acetamide], for which the IC50 was below 0.2 µM. With `CC(=O)N(C)CCN(C)c1cncc(Oc2ccc(-c3cc(C(N)=O)ccn3)cc2)n1` [Compound 192, 2-[4-(6-{[2-(Acetyl-methyl-amino)-ethyl]-methyl-amino}-pyrazin-2-yloxy)-phenyl]-isonico-tinamide] the figure was 0.2 to 1 µM; with `Cc1ccc(-c2ccc(Oc3cncc(N(C)CCN4CCCCC4=O)n3)cc2)nc1` [Compound 193, 1-[2-(Methyl-{6-[4-(5-methyl-pyridin-2-yl)-phenoxy]-pyrazin-2-yl}-amino)-ethyl]-piperidin-2-one], below 0.2 µM.

Compound `COc1cc(-c2ccc(Oc3cncc(N(C)CCN(C)C(C)=O)n3)cc2)ccn1` [Compound 194, N-[2-({6-[4-(2-Methoxy-pyridin-4-yl)-phenoxy]-pyrazin-2-yl}-methyl-amino)-ethyl]-N-methyl-acetamide] gave an IC50 of 0.2 to 1 µM. The result for `CC(=O)N(C)CCN(C)c1cncc(Oc2ccc(-c3ccnc4ccccc34)cc2)n1` [Compound 195, N-Methyl-N-(2-{methyl-[6-(4-quinolin-4-yl-phenoxy)-pyrazin-2-yl]-amino}-ethyl)-acetamide] reads below 0.2 µM; that for `Cc1ccc(-c2ccc(Oc3cncc(NCCN4CCCC4=O)n3)cc2)nc1` [Compound 196, 1-(2-{6-[4-(5-Methyl-pyridin-2-yl)-phenoxy]-pyrazin-2-ylamino}-ethyl)-pyrrolidin-2-one], below 0.2 µM; that for `Cc1ccc(-c2ccc(Oc3cncc(NCCN4CCCCC4=O)n3)cc2)nc1` [Compound 197, 1-(2-{6-[4-(5-Methyl-pyridin-2-yl)-phenoxy]-pyrazin-2-ylamino}-ethyl)-piperidin-2-one], below 0.2 µM. Consider `CC(=O)N(C)CCN(C)c1cncc(Oc2ccc(-c3ccc([N+](=O)[O-])cn3)cc2)n1` [Compound 198, N-Methyl-N-[2-(methyl-{6-[4-(5-nitro-pyridin-2-yl)-phenoxy]-pyrazin-2-yl}-amino)-ethyl]-acetamide], for which the IC50 is below 0.2 µM. The result for `CC(=O)N(C)CCN(C)c1cncc(Oc2ccc(-c3cc(C#N)ccn3)cc2)n1` [Compound 199, N-[2-({6-[4-(4-Cyano-pyridin-2-yl)-phenoxy]-pyrazin-2-yl}-methyl-amino)-ethyl]-N-methyl-acetamide] reads below 0.2 µM; that for `CC(=O)N(C)CCN(C)c1cncc(Oc2ccc(-c3cccc(C#N)n3)cc2)n1` [Compound 200, N-[2-({6-[4-(6-Cyano-pyridin-2-yl)-phenoxy]-pyrazin-2-yl}-methyl-amino)-ethyl]-N-methyl-acetamide], below 0.2 µM.

For the compound `CC(=O)N(C)CCN(C)c1cncc(Oc2ccc(-c3ccnc(C#N)c3)cc2)n1` [Compound 201, N-[2-({6-[4-(2-Cyano-pyridin-4-yl)-phenoxy]-pyrazin-2-yl}-methyl-amino)-ethyl]-N-methyl-acetamide], the IC50 was below 0.2 µM. `CC(=O)N(C)CCN(C)c1cncc(Oc2ccc(-c3ccnc(N)n3)cc2)n1` [Compound 202, N-[2-({6-[4-(2-Amino-pyrimidin-4-yl)-phenoxy]-pyrazin-2-yl}-methyl-amino)-ethyl]-N-methyl-acetamide] showed an IC50 below 0.2 µM.

Take `CC(=O)N(C)CCN(C)c1cncc(Oc2ccc(-c3ccncc3)cc2)n1` [Compound 203, N-Methyl-N-(2-{methyl-[6-(4-pyridin-4-yl-phenoxy)-pyrazin-2-yl]-amino}-ethyl)-acetamide]: the half-maximal inhibitory concentration (IC50) was below 0.2 µM. `CC(=O)N(C)CCN(C)c1cncc(Oc2ccc(-c3ccnc(O)c3)cc2)n1` [Compound 204, N-[2-({6-[4-(2-Hydroxy-pyridin-4-yl)-phenoxy]-pyrazin-2-yl}-methyl-amino)-ethyl]-N-methyl-acetamide] yielded an IC50 of 0.2 to 1 µM. The result for `CC(=O)N(C)CCN(C)c1cncc(Oc2ccc(-c3cccc(N)n3)cc2)n1` [Compound 205, N-[2-({6-[4-(6-Amino-pyridin-2-yl)-phenoxy]-pyrazin-2-yl}-methyl-amino)-ethyl]-N-methyl-acetamide] reads below 0.2 µM; that for `CC(=O)N(C)CCN(C)c1cncc(Oc2ccc(-c3cccc(S(C)(=O)=O)n3)cc2)n1` [Compound 206, N-[2-({6-[4-(6-Methane-sulfonyl-pyridin-2-yl)-phenoxy]-pyrazin-2-yl}-methyl-amino)-ethyl]-N-methyl-acetamide], below 0.2 µM; that for `CC(=O)N(C)CCN(C)c1cncc(Oc2ccc(-c3cnc4ccccc4c3)cc2)n1` [Compound 207, N-Methyl-N-(2-{methyl-[6-(4-quinolin-3-yl-phenoxy)-pyrazin-2-yl]-amino}-ethyl)-acetamide], 0.2 to 1 µM.

The compound `CC(=O)N(C)CCN(C)c1cncc(O[C@H]2C[C@H]3CC[C@@H]2C3)n1` [Compound 208, N-(2-{[6-((1R,2S,4S)-Bicyclo[2.2.1]hept-2-yloxy)-pyrazin-2-yl]-methyl-amino}-ethyl)-N-methyl-acetamide] registered an IC50 of 1 to 10 µM. With `CC(=O)N(C)CCN(C)c1cncc(Oc2ccc(-c3cncnc3)cc2)n1` [Compound 209, N-Methyl-N-(2-{methyl-[6-(4-pyrimidin-5-yl-phenoxy)-pyrazin-2-yl]-amino}-ethyl)-acetamide] the figure was below 0.2 µM; with `CC(=O)N(C)CCN(C)c1cncc(Oc2ccc(-c3ccnc(F)c3)cc2)n1` [Compound 210, N-[2-({6-[4-(2-Fluoro-pyridin-4-yl)-phenoxy]-pyrazin-2-yl}-methyl-amino)-ethyl]-N-methyl-acetamide], below 0.2 µM; with `CC(=O)N(C)CCN(C)c1cncc(Oc2ccc(-c3ccc(C#N)nc3)cc2)n1` [Compound 211, N-[2-({6-[4-(6-Cyano-pyridin-3-yl)-phenoxy]-pyrazin-2-yl}-methyl-amino)-ethyl]-N-methyl-acetamide], below 0.2 µM.

`CC(=O)N(C)CCN(C)c1cncc(Oc2ccc(-c3cncc(C)c3)cc2)n1` [Compound 212, N-Methyl-N-[2-(methyl-{6-[4-(5-methyl-pyridin-3-yl)-phenoxy]-pyrazin-2-yl}-amino)-ethyl]-acetamide]: the IC50 fell in the range of 0.2 to 1 µM. `CC(=O)N(C)CCCc1cncc(Oc2ccc(-c3ccncc3C#N)cc2)n1` [Compound 213, N-(3-{6-[4-(3-Cyano-pyridin-4-yl)-phenoxy]-pyrazin-2-yl}-propyl)-N-methyl-acetamide] yielded an IC50 of 0.2 to 1 µM. With `CC(=O)N(C)CCCc1cncc(Oc2ccc(-c3cnc(N)cn3)cc2)n1` [Compound 214, N-(3-{6-[4-(5-Amino-pyrazin-2-yl)-phenoxy]-pyrazin-2-yl}-propyl)-N-methyl-acetamide] the figure was 0.2 to 1 µM.

Consider `CC(=O)N(C)CCCc1cncc(Oc2ccc(-c3ccc(C)cn3)cc2)n1` [Compound 215, N-Methyl-N-(3-{6-[4-(5-methyl-pyridin-2-yl)-phenoxy]-pyrazin-2-yl}-propyl)-acetamide], for which the IC50 lay within 0.2 to 1 µM.

Turning to `CC(=O)N(C)CCCc1cncc(Oc2ccc(-c3ccc(N4CCOCC4)nc3)cc2)n1` [Compound 216, N-Methyl-N-(3-{6-[4-(6-morpholin-4-yl-pyridin-3-yl)-phenoxy]-pyrazin-2-yl}-propyl)-acetamide], the IC50 fell in the range of 0.2 to 1 µM.

Compound `CC(=O)N(C)CCCc1cncc(Oc2ccc(-c3cccc(N4CCN(C)CC4)n3)cc2)n1` [Compound 217, N-Methyl-N-[3-(6-{4-[6-(4-methyl-piperazin-1-yl)-pyridin-2-yl]-phenoxy}-pyrazin-2-yl)-propyl]-acetamide] had an IC50 of 0.2 to 1 µM. The result for `CC(=O)Nc1cccc(-c2ccc(Oc3cncc(CCCN(C)C(C)=O)n3)cc2)n1` [Compound 218, N-(3-{6-[4-(6-Acetylamino-pyridin-2-yl)-phenoxy]-pyrazin-2-yl}-propyl)-N-methyl-acetamide] reads 0.2 to 1 µM. The result for `CC(=O)Nc1ccc(-c2ccc(Oc3cncc(CCCN(C)C(C)=O)n3)cc2)cn1` [Compound 219, N-(3-{6-[4-(6-Acetylamino-pyridin-3-yl)-phenoxy]-pyrazin-2-yl}-propyl)-N-methyl-acetamide] reads 0.2 to 1 µM; that for `CC(=O)N(C)CCCc1cncc(Oc2ccc(-c3ccc(F)cn3)cc2)n1` [Compound 220, N-(3-{6-[4-(5-Fluoro-pyridin-2-yl)-phenoxy]-pyrazin-2-yl}-propyl)-N-methyl-acetamide], 1 to 10 µM. With `COc1ccc(-c2ccc(Oc3cncc(CCCN(C)C(C)=O)n3)cc2)nc1` [Compound 221, N-(3-{6-[4-(5-Methoxy-pyridin-2-yl)-phenoxy]-pyrazin-2-yl}-propyl)-N-methyl-acetamide] the figure was 0.2 to 1 µM; with `CC(=O)N(C)CCN(C)c1cncc(Oc2cnn(-c3cccc(C(F)(F)F)c3)c2)n1` [Compound 222, N-Methyl-N-[2-(methyl-{6-[1-(3-trifluoromethyl-phenyl)-1H-pyrazol-4-yloxy]-pyrazin-2-yl}-amino)-ethyl]-acetamide], 1 to 10 µM; with `CC(=O)N(C)CCN(C)c1cncc(OC2Cc3ccccc3C2)n1` [Compound 223, N-(2-{[6-(Indan-2-yloxy)-pyrazin-2-yl]-methyl-amino}-ethyl)-N-methyl-acetamide], 0.2 to 1 µM.
